Source: patent publication US9211310B2, “Use of a Chinese medicine composition in preparing medicaments for treating secondary prevention of myocardial infarction” (TASLY PHARMACEUTICAL GROUP CO., LTD, priority 2010, dated 2015)

Tested on: patients after acute myocardial infarction
Assay: TCM symptom score, total and single (chest pain, chest tightness, short breath, fatigue, palpitation, spontaneous perspiration, pale complexion), same clinical trial
Format: in vivo, human
Parameters: total score of TCM symptom, Mean / total score of TCM symptom, Min / total score of TCM symptom, Max / total score of TCM symptom, Md / change of total score of TCM symptom, Mean / change of total score of TCM symptom, Max / change of total score of TCM symptom, Md: scale not given here
Settings: FAS
From the text: 3508 patients who were in accordance with the diagnostic standards of AMI for 28 days to 2 years and differentiated as Qi deficiency and blood stagnation syndrome by TCM were studied. 0.5 g Chinese medicine composition prepared by the method of EXAMPLE 1 (Coded as QSYQ) was administrated half an hour after meal, 3 times per day.
They included the overall survival time, angina pectoris score, TCM symptom score and life quality score, where angina pectoris score, TCM symptom score and life quality score were evaluated at randomization, in 1st, 3rd, 6th, 9th, 12th month after treatment and 18th month after follow-up.
The analysis method referred to the angina pectoris score.

[1] = 1 month after treatment-baseline
[2] = 3 month after treatment-baseline

CC(=O)Oc1ccccc1C(=O)O [Control group, aspirine]
total score of TCM symptom, Max (1 month after treatment): 34.00 | total score of TCM symptom, Md (1 month after treatment): 11.00 | total score of TCM symptom, Mean (1 month after treatment): 11.84 | total score of TCM symptom, Min (1 month after treatment): 0.00 | change of fatigue 0, % of patients [1]: (72.40%) | change of fatigue 0, number of patients [1]: 1238 | change of fatigue 1, % of patients [1]: (0.06%) | change of fatigue 1, number of patients [1]: 1 | change of fatigue 2, % of patients [1]: (17.72%) | change of fatigue 2, number of patients [1]: 303 | change of fatigue 4, % of patients [1]: (2.63%) | change of fatigue 4, number of patients [1]: 45 | change of fatigue 6, % of patients [1]: (0.76%) | change of fatigue 6, number of patients [1]: 13 | change of fatigue −2, % of patients [1]: (5.73%) | change of fatigue −2, number of patients [1]: 98 | change of fatigue −4, % of patients [1]: (0.64%) | change of fatigue −4, number of patients [1]: 11 | change of fatigue −6, % of patients [1]: (0.06%) | change of fatigue −6, number of patients [1]: 1 | change of pale complexion 0, number of patients [1]: 1477 | change of pale complexion 0, percent of patients [1]: (86.48%) | change of pale complexion 1, number of patients [1]: 166 | change of pale complexion 1, percent of patients [1]: (9.72%) | change of pale complexion −1, number of patients [1]: 65 | change of pale complexion −1, percent of patients [1]: (3.81%) | change of palpitation 0, number of patients [1]: 1242 | change of palpitation 0, percent of patients [1]: (72.63%) | change of palpitation 1, number of patients [1]: 334 | change of palpitation 1, percent of patients [1]: (19.53%) | change of palpitation 2, number of patients [1]: 25 | change of palpitation 2, percent of patients [1]: (1.46%) | change of palpitation 3, number of patients [1]: 5 | change of palpitation 3, percent of patients [1]: (0.29%) | change of palpitation −1, number of patients [1]: 103 | change of palpitation −1, percent of patients [1]: (6.02%) | change of palpitation −2, number of patients [1]: 1 | change of palpitation −2, percent of patients [1]: (0.06%) | change of palpitation −3, number of patients [1]: 0 | change of palpitation −3, percent of patients [1]: (0.00%) | change of short breath 0, % of patients [1]: (77.37%) | change of short breath 0, number of patients [1]: 1323 | change of short breath 2, % of patients [1]: (14.74%) | change of short breath 2, number of patients [1]: 252 | change of short breath 4, % of patients [1]: (1.75%) | change of short breath 4, number of patients [1]: 30 | change of short breath 6, % of patients [1]: (0.41%) | change of short breath 6, number of patients [1]: 7 | change of short breath −2, % of patients [1]: (5.26%) | change of short breath −2, number of patients [1]: 90 | change of short breath −4, % of patients [1]: (0.47%) | change of short breath −4, number of patients [1]: 8 | change of short breath −6, % of patients [1]: (0.00%) | change of short breath −6, number of patients [1]: 0 | change of spontaneous perspiration 0, number of patients [1]: 1249 | change of spontaneous perspiration 0, percent of patients [1]: (73.08%) | change of spontaneous perspiration 1, number of patients [1]: 279 | change of spontaneous perspiration 1, percent of patients [1]: (16.33%) | change of spontaneous perspiration 2, number of patients [1]: 51 | change of spontaneous perspiration 2, percent of patients [1]: (2.98%) | change of spontaneous perspiration 3, number of patients [1]: 16 | change of spontaneous perspiration 3, percent of patients [1]: (0.94%) | change of spontaneous perspiration −1, number of patients [1]: 94 | change of spontaneous perspiration −1, percent of patients [1]: (5.50%) | change of spontaneous perspiration −2, number of patients [1]: 17 | change of spontaneous perspiration −2, percent of patients [1]: (0.99%) | change of spontaneous perspiration −3, number of patients [1]: 3 | change of spontaneous perspiration −3, percent of patients [1]: (0.18%) | change of total score of TCM symptom, Max [1]: 24.00 | change of total score of TCM symptom, Md [1]: 0.00 | change of total score of TCM symptom, Mean [1]: −1.96 | change of total score of TCM symptom, Min [1]: −33.00 | change of total score of TCM symptom, Max [2]: 19.00 | change of total score of TCM symptom, Md [2]: −2.00 | change of total score of TCM symptom, Mean [2]: −2.91 | change of total score of TCM symptom, Min [2]: −33.00 | distribution of total score of TCM symptom: Medium, number of patients (3 months after treatment): 546 | distribution of total score of TCM symptom: Medium, percentage of patients (3 months after treatment): (33.58%) | distribution of total score of TCM symptom: Mild, number of patients (3 months after treatment): 1066 | distribution of total score of TCM symptom: Mild, percentage of patients (3 months after treatment): (65.56%) | distribution of total score of TCM symptom: Severe, number of patients (3 months after treatment): 14 | distribution of total score of TCM symptom: Severe, percentage of patients (3 months after treatment): (0.86%) | fatigue score 0, % of patients (3 months after treatment): (27.96%) | fatigue score 0, number of patients (3 months after treatment): 480 | fatigue score 2, % of patients (3 months after treatment): (59.76%) | fatigue score 2, number of patients (3 months after treatment): 1026 | fatigue score 4, % of patients (3 months after treatment): (11.47%) | fatigue score 4, number of patients (3 months after treatment): 197 | fatigue score 6, % of patients (3 months after treatment): (0.82%) | fatigue score 6, number of patients (3 months after treatment): 14 | pale complexion score 0, number of patients (3 months after treatment): 809 | pale complexion score 0, percent of patients (3 months after treatment): (47.12%) | pale complexion score 1, number of patients (3 months after treatment): 677 | pale complexion score 1, percent of patients (3 months after treatment): (39.43%) | pale complexion score 2, number of patients (3 months after treatment): 210 | pale complexion score 2, percent of patients (3 months after treatment): (12.23%) | pale complexion score 3, number of patients (3 months after treatment): 21 | pale complexion score 3, percent of patients (3 months after treatment): (1.22%) | palpitation score 0, number of patients (3 months after treatment): 480 | palpitation score 0, percent of patients (3 months after treatment): (27.96%) | palpitation score 2, number of patients (3 months after treatment): 894 | palpitation score 2, percent of patients (3 months after treatment): (52.07%) | palpitation score 4, number of patients (3 months after treatment): 310 | palpitation score 4, percent of patients (3 months after treatment): (18.05%) | palpitation score 6, number of patients (3 months after treatment): 33 | palpitation score 6, percent of patients (3 months after treatment): (1.92%) | short breath score 0, % of patients (3 months after treatment): (21.78%) | short breath score 0, number of patients (3 months after treatment): 374 | short breath score 3, % of patients (3 months after treatment): (58.94%) | short breath score 3, number of patients (3 months after treatment): 1012 | short breath score 6, % of patients (3 months after treatment): (18.52%) | short breath score 6, number of patients (3 months after treatment): 318 | short breath score 9, % of patients (3 months after treatment): (0.76%) | short breath score 9, number of patients (3 months after treatment): 13 | spontaneous perspiration score 0, number of patients (3 months after treatment): 667 | spontaneous perspiration score 0, percent of patients (3 months after treatment): (38.85%) | spontaneous perspiration score 1, number of patients (3 months after treatment): 846 | spontaneous perspiration score 1, percent of patients (3 months after treatment): (49.27%) | spontaneous perspiration score 2, number of patients (3 months after treatment): 190 | spontaneous perspiration score 2, percent of patients (3 months after treatment): (11.07%) | spontaneous perspiration score 3, number of patients (3 months after treatment): 14 | spontaneous perspiration score 3, percent of patients (3 months after treatment): (0.82%) | total score of TCM symptom, Max (3 months after treatment): 33.00
